Earlier results, collected in US11246476B2, “Method for visualizing tissue with an ICG dye composition during ablation procedures” (CardioFocus, Inc., priority 2014, dated 2022).

Experiments:
[1] = in vivo
[2] = after injection into the patient's arm (e.g., through an IV)

CC1(C)C(/C=C/C=C/C=C/C=C2\N(CCCCS(=O)(=O)[O-])c3ccc4ccccc4c3C2(C)C)=[N+](CCCCS(=O)(=O)[O-])c2ccc3ccccc3c21.[Na+] [ICG, Indocyanine green]
route of removal from circulation [1]: removed from circulation exclusively by the liver to bile juice
binding to plasma proteins (plasma proteins): binds tightly to plasma proteins
time to travel through the bloodstream to the target tissue [2]: less than 1 minute
